Experimental data as given in US20230094227A1, “NOVEL FK506 DERIVATIVE AND COMPOSITION COMPRISING SAME FOR PROMOTING HAIR GROWTH” (SEOUL NATIONAL UNIVERSITY R&DB FOUNDATION, priority 2020, published 2023).
Converted amounts (≈) assume the structure as drawn.

Tested on: CD4+ T cells
Assay: in vitro T-cell activity assay (CD4+ T cell proliferation by CTV intensity, flow cytometry)
Format: cell-based, B6J mice
Settings: CD3/CD28-activated mouse spleen CD4+ T cells, 72 hours culture; for IC50: Mus musculus, CD4+ T, 72 h, read-out: Immunosuppression IC50
Source text: The degree of decrease in immunosuppressive activity of the four novel compounds was investigated by using the conventional in vitro T-cell activity assay (J. Immunol. 143: 718-726, 1989). The division of CD4+ T cells is an indicator that an immune response is taking place, and when CD4+ T cells are stained with Cell Trace™ Violet (CTV) and the cells divide according to the immune response and the T cells proliferate, a phenomenon in which the CTV retention of each cell decreases appears, and thus, the degree of immunosuppressive activity was investigated using this as an indicator.
Single cells were isolated from the spleen of 6 to 8 week-old B6J mice, and CD4+ T cells were isolated using the MagniSort® Mouse CD4 T cell Enrichment Kit (eBioscience). CD4+ T cells were stained with Cell Trace™ Violet (CTV) Cell Proliferation Kit (Molecular Probes), and FK506 or the four novel compounds were added to a concentration of 0.01 ng/mL, 0.1 ng/mL, 1 ng/mL, 10 ng/mL, 100 ng/mL or […], and then, it was cultured for 72 hours. Dynabeads® Mouse T-Activator CD3/CD28 (Gibco) was used for T cell activation. As a control group, non-activated T cells were used. After culture, CTV intensity was analyzed by flow cytometry.

Structure (SMILES)	IC50	Immunosuppression IC50
CCC[C@@H]1/C=C(\C)C[C@H](C)C[C@H](OC)[C@H]2O[C@@](O)(CC(=O)N3CCC[C@H]3C(=O)O[C@H](/C(C)=C/[C@@H]3CC[C@@H](O)[C@H](OC)C3)[C@H](C)[C@@H](O)CC1=O)[C@H](C)C[C@@H]2OC [9-deoxo-36,37-dihydro-prolylFK506]	3.09 µg/mL (≈ 3.97 µM)	
CC[C@@H]1/C=C(\C)C[C@H](C)C[C@H](OC)[C@H]2O[C@@](O)(CC(=O)N3CCC[C@H]3C(=O)O[C@H](/C(C)=C/[C@@H]3CC[C@@H](O)[C@H](O)C3)[C@H](C)[C@@H](O)CC1=O)[C@H](C)C[C@@H]2OC [9-deoxo-prolylFK520]		3.2888 µg/mL
CCC[C@@H]1/C=C(\C)C[C@H](C)C[C@H](OC)[C@H]2O[C@@](O)(CC(=O)N3CCC[C@H]3C(=O)O[C@H](/C(C)=C/[C@@H]3CC[C@@H](O)[C@H](O)C3)[C@H](C)[C@@H](O)CC1=O)[C@H](C)C[C@@H]2OC [9-deoxo-31-O-demethyl-36,37-dihydro-prolylFK506]	5.56 µg/mL (≈ 7.27 µM)	
C=CC[C@@H]1/C=C(\C)C[C@H](C)C[C@H](OC)[C@H]2O[C@@](O)(C(=O)C(=O)N3CCCC[C@H]3C(=O)O[C@H](/C(C)=C/[C@@H]3CC[C@@H](O)[C@H](OC)C3)[C@H](C)[C@@H](O)CC1=O)[C@H](C)C[C@@H]2OC [FK506]	2.7e-05 µg/mL (≈ 3.36e-05 µM)	
